In patent publication US12729381B2, “Methods and compositions for inactivating interleukin-2-inducible t-cell kinase (ITK)” (priority 2020, dated 2026):
Non-standard residues stand in square brackets, D forms with d. No end group written: not given here. *: point of attachment. FITC = O=C1OC2(c3ccc(O)cc3Oc3cc(O)ccc32)c2ccc(NC(=S)*)cc21; pY = N[C@@H](Cc1ccc(OP(=O)(O)O)cc1)C(=O)O

Tests used:
SLP76: ITK signaling = assay: Western blot of signaling proteins in mouse T cells stimulated with anti-CD3 and anti-CD28; type: cell-based
Procedure: Western blotting: For protein analysis, T cells were either nonstimulated, or stimulated with anti-CD3 and anti-CD28 for 24 hours overnight, and were lysed with freshly prepared lysis buffer (RIPA Buffer (Fisher Scientific cat #PI89900)+cOmplete Protease Inhibitor Cocktail (Sigma-Aldrich; cat #11697498001)) and centrifuged for 10 minutes at 14000 rpm at 4° C. Protein aliquots of 70 μg of protein were loaded on a 12-18% denaturing polyacrylamide gel and transferred to nitrocellulose membranes for immunoblot analysis using antibodies specific to proteins of interest.
To ensure that the peptide easily enters cells and that its cellular localization can be monitored, a C-terminal TAT peptide (GRKKRRQRRRPQ) (SEQ ID NO:3) and an N-terminal fluorescent FITC dye were incorporated, respectively, and named it SLP76pTYR peptide ([…]). SLP76pTYR peptide (FITC Dye ^132NEEEEAPVEDDADpYEPPPSNDEEA^155-TAT) (SEQ ID NO:5) and non-specific control peptide (FITC Dye-[…]-TAT) (SEQ ID NO:6) were synthesized by Genscript Inc (Piscataway, NJ). These peptides were initially dissolved in 3% ammonia water to a final concentration of 10 mg/mL and then further diluted into PBS to a final concentration of 0.1 mg/mL. Fresh splenocytes were isolated from WT mice, and T cells were generated from splenocytes as previously described (Baker et al., 2001). Briefly, T cells were isolated from splenocytes using MACS beads (Miltenyi Biotec), then cultured in complete RPMI media (3×10^6 cells/mL) and plated on anti-CD3 ([…]; Biolegend; cat #100202) and anti-CD28 ([…]; Biolegend; cat #102116) antibody-coated tissue culture plates until otherwise specified. T cells were incubated with SLP76pTYR, control peptide or vehicle alone at different concentrations ranging from 100 ng/ml to 1 mg/ml in the presence of 4 mg/ml of protamine sulfate. […] Within 60 minutes, it was observed that peptides were inside the cells. Cells were cultured for 5 minutes prior to investigating signaling changes. Cells were examined for the presence of FITC by microscopy using a Leica DMi8 microscope equipped with an infinity total internal reflection fluorescence (TIRF) and DIC modules, a Lumencor SOLA SE II light box, a 150 mW 488 (GFP) laser and filter cube, a 100x/1.47 NA objective, and an Andor iXon Life 897 EMCCD camera. FITC expression was confirmed by flow cytometry as well. Cells were lysed and used in Western blots.
ITK deficiency is known to enhance the development of regulatory T cells (Tregs) (Elmore et al., 2020, Owen et al., 2019) so the peptide inhibitor was tested to determine whether inhibition of the ITK: SLP76Y145 interactions using SLP76pTYR would induce Tregs. First, the frequency of Tregs was examined by expression of CD4^+ and FoxP3^+ (FIG. 18A). Next, total mouse T cells were stimulated with anti-CD3 (Sugie et al., 2004) in the presence of either SLP76pTYR, nonspecific peptide, or vehicle alone for 5 to 24 hours, and cells were harvested and examined for the presence of Tregs (CD4^+CD25^+FoxP3^+). […] Next, the effects of SLP76pTYR peptide on human PBMC samples from healthy human patients was investigated. T cells from these patients were stimulated with anti-CD3 (OKT3) (Karimi et al., 2005) for 5 minutes in the presence of SLP76pTYR or vehicle alone. […] No differences in stimulated or unstimulated total human AKT (FIG. 18E and FIG. 28H) was observed, providing a showing that the SLP76pTYR peptide has an impact on signaling pathways downstream of SLP76 in both mouse and human T cells. […] Next, the ability of SLP76pTYR peptide to affect the production of proinflammatory cytokines in human PBMCs was investigated. T cells from healthy human were stimulated with anti-CD3 (OKT3) and anti-CD28 in the presence of SLP76pTYR or vehicle alone, along with Brefeldin A. T cells incubated with SLP76pTYR or vehicle alone were also examined in the presence of PMA+lonomycin and Brefeldin A for 6 hours. […]

Tregs (CD4+CD25+FoxP3+) = assay: Treg differentiation in total mouse T cells stimulated with anti-CD3; type: cell-based; details: anti-CD3, 5 to 24 hours; compared to vehicle alone or nonspecific peptide
From the text: To ensure that the peptide easily enters cells and that its cellular localization can be monitored, a C-terminal TAT peptide (GRKKRRQRRRPQ) (SEQ ID NO:3) and an N-terminal fluorescent FITC dye were incorporated, respectively, and named it SLP76pTYR peptide ([…]). SLP76pTYR peptide (FITC Dye ^132NEEEEAPVEDDADpYEPPPSNDEEA^155-TAT) (SEQ ID NO:5) and non-specific control peptide (FITC Dye-[…]-TAT) (SEQ ID NO:6) were synthesized by Genscript Inc (Piscataway, NJ). These peptides were initially dissolved in 3% ammonia water to a final concentration of 10 mg/mL and then further diluted into PBS to a final concentration of 0.1 mg/mL. Fresh splenocytes were isolated from WT mice, and T cells were generated from splenocytes as previously described (Baker et al., 2001). […] Cells were examined for the presence of FITC by microscopy using a Leica DMi8 microscope equipped with an infinity total internal reflection fluorescence (TIRF) and DIC modules, a Lumencor SOLA SE II light box, a 150 mW 488 (GFP) laser and filter cube, a 100x/1.47 NA objective, and an Andor iXon Life 897 EMCCD camera. […]

[1] = anti-CD3 and anti-CD28 for 5 minutes, vs vehicle alone

Q: For “FITC Dye ^132NEEEEAPVEDDADpYEPPPSNDEEA^155-TAT ({FITC}-NEEEEAPVEDDAD[pY]EPPPSNDEEAGRKKRRQRRRPQ) [SLP76pTYR]”, which “off-target effects against other kinases” value (SLP76: ITK signaling; PI3K and AKT, mouse and human T cells (FIG. 28A-H)) is on record?
A: minimal off-target effects against other kinases, including PI3K and AKT

Q: And the “ITK phosphorylation, stimulated” value (SLP76: ITK signaling; [1])?
A: reduction in ITK phosphorylation

Q: What about the “PLCγ-1 phosphorylation, stimulated” value (SLP76: ITK signaling; [1]) of the same substance?
A: a reduction in stimulated phosphorylation PLCγ-1 was observed

Q: What about the “ITK phosphorylation, non-stimulated” value (SLP76: ITK signaling; non-stimulated cells, vs vehicle alone) of the same substance?
A: A reduction in non-stimulated phosphorylation ITK was not observed

Q: What about the “phosphorylation of AKT” value (SLP76: ITK signaling; stimulated and non-stimulated, also total AKT) of the same substance?
A: No differences in the phosphorylation of PI3K or AKT was observed

Q: What about the “phosphorylation of PI3K” value (SLP76: ITK signaling; stimulated and non-stimulated, also total PI3K) of the same substance?
A: No differences in the phosphorylation of PI3K or AKT was observed

Q: And the “non-stimulated phospho-PLCγ-1 and stimulated or non-stimulated PLCγ-1” value (SLP76: ITK signaling; vs vehicle alone)?
A: no reduction with non-stimulated phospho-PLCγ-1or either stimulated or non-stimulated PLCγ-1 was observed

Q: And the “total ITK, stimulated or non-stimulated” value (SLP76: ITK signaling; vs vehicle alone)?
A: nor was any reduction for non-stimulated total ITK or stimulated total ITK observed

Q: And the “differentiation of Treg cells” value (Tregs (CD4+CD25+FoxP3+))?
A: Significantly enhanced differentiation of Treg cells
